Assays:
[1] = target: T1, Proteasome Macropain subunit MB1 (Homo sapiens, UniProt P28074); assay: Inhibition of human 20S proteasome beta 5
T1 sequence (P28074 whole entry): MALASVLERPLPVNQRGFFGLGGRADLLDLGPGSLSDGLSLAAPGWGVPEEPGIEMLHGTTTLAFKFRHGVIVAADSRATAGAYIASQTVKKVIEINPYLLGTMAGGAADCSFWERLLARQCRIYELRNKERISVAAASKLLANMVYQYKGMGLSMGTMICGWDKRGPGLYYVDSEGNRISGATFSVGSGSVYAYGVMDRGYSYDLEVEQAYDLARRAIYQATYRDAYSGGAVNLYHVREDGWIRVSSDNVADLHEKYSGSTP

[2] = target: T2, Proteasome Macropain subunit MB1 (Homo sapiens) (UniProt P28074); assay: Inhibition of human 20S proteasome beta 5 at 10 uM relative to control
T2 sequence (whole entry): T1 sequence (P28074 whole entry)

MDA-MB-468 = assay: Antiproliferative activity against human MDA-MB-468 cells assessed as reduction in cell viability by SRB assay
Homo sapiens = organism: Homo sapiens; assay: Inhibition of human 20S proteasome beta 5i subunit at 10 microM relative to control

SMILES	IC50 [1] [µM]	inhibition [2] [%]	IC50 (MDA-MB-468) [µM]	further results
CC(C)N(Cc1cccc(-c2ccco2)c1)C(=O)c1cc2ccccc2o1	47.3			
CCCc1ccc(OCC(=O)N(Cc2ccc(-c3cccnc3)cc2)C(C)C)cc1	1.14			
CCCc1ccc(OCC(=O)N(Cc2cccc(-c3cccs3)c2)C(C)C)cc1	9.45			
CC(C)N(Cc1nc(-c2ccco2)no1)C(=O)COc1ccc(Oc2ccccc2)cc1	14.7			
CCCc1ccc(OCC(=O)N(Cc2nc(-c3cccs3)no2)C(C)C)cc1	0.18		27	inhibition (Homo sapiens): 25.3%
CC(C)N(Cc1ccc(-c2cccs2)cc1)C(=O)COc1ccc(Oc2ccccc2)cc1		< 30		
CC(C)N(Cc1cncc(-c2cccnc2)c1)C(=O)c1cc2ccccc2o1		< 30		
CC(C)N(Cc1cccc(-c2cccs2)c1)C(=O)c1cc2ccccc2o1		< 30		
CCCc1ccc(OCC(=O)N(Cc2cccc(-c3ccco3)c2)C(C)C)cc1	10.7			
CC(C)N(Cc1cccc(-c2cccs2)c1)C(=O)c1ccc2ccccc2n1	3.36		31.9	
CCCc1ccc(OCC(=O)N(Cc2nc(-c3cccnc3)no2)C(C)C)cc1			7.6	
CC(C)N(Cc1nc(-c2ccc3ccccc3n2)no1)C(=O)c1cc2ccccc2o1		< 30		
CC(C)N(Cc1cccc(-c2ccco2)c1)C(=O)c1ccc2ccccc2n1	61.6			
CC(C)N(Cc1cncc(-c2cncnc2)c1)C(=O)c1cc2ccccc2o1		< 30		

Second part, led by results:

IC50 [1] [µM]	inhibition [2] [%]	IC50 (MDA-MB-468) [µM]	SMILES	further results
	< 30		CC(C)N(Cc1nc(-c2ccco2)no1)C(=O)c1ccc2ccccc2n1	
0.61		> 40	CC(C)N(Cc1nc(-c2ccco2)no1)C(=O)c1cc2ccccc2o1	
0.88		35	CCCc1ccc(OCC(=O)N(Cc2nc(-c3ccc4ccccc4n3)no2)C(C)C)cc1	
0.39		> 40	CC(C)N(Cc1nc(-c2cccs2)no1)C(=O)c1cc2ccccc2o1	
	< 30		CCCc1ccc(OCC(=O)N(Cc2cncc(-c3cncnc3)c2)C(C)C)cc1	
0.12		38.8	CCCc1ccc(OCC(=O)N(Cc2nc(-c3ccco3)no2)C(C)C)cc1	inhibition (Homo sapiens): 7.3%
1.08		19.3	CCCc1ccc(OCC(=O)N(Cc2cccc(-c3cccnc3)c2)C(C)C)cc1	
1.61		6.8	CC(C)N(Cc1nc(-c2cccnc2)no1)C(=O)COc1ccc(Oc2ccccc2)cc1	
2.27		30.2	CCCc1ccc(OCC(=O)N(Cc2cccc(-c3cncnc3)c2)C(C)C)cc1	
1.37		> 40	CC(C)N(Cc1ccc(-c2cccnc2)cc1)C(=O)COc1ccc(Oc2ccccc2)cc1	
33.5			CCCc1ccc(OCC(=O)N(Cc2ccc(-c3cccs3)cc2)C(C)C)cc1	
	< 30		CC(C)N(Cc1cccc(-c2cncnc2)c1)C(=O)c1cc2ccccc2o1	
	< 30		CC(C)N(Cc1nc(-c2ccco2)no1)C(=O)c1cnc2ccccc2n1	
	< 30		CCCc1ccc(OCC(=O)N(Cc2cncc(-c3cccnc3)c2)C(C)C)cc1	
20.2			CC(C)N(Cc1cccc(-c2cccnc2)c1)C(=O)c1cc2ccccc2o1	
4.31			CCCc1ccc(OCC(=O)N(Cc2nc(-c3ccc4ccccc4c3)no2)C(C)C)cc1	
	< 30		CC(C)N(Cc1nc(-c2ccc3ccccc3c2)no1)C(=O)c1cc2ccccc2o1	
